# Reference: paper PMC5467912, “Asymmetric regulation of quorum-sensing receptors drives autoinducer-specific gene expression programs in Vibrio cholerae” (PLoS Genetics, 2017)
# Values joined by “and” are separate entries in the source; they are usually repeats but may differ in a detail not shown here. Equal entries are not always repeated.
# Legend:
# [1] = biological target: T1, CqsS (Vibrio cholerae serotype O1, UniProt Q9KM66); test: cell-based; settings: for Light production: strain WN1102; for EC50: light production, reporter strain WN1102, 4 h at 30 °C; for RLU: Strain WN1102
# T1 construct: endogenous in cells; host or cells: V. cholerae WN1102 (ΔcqsA ΔluxQ/pBB1), derived from C6706str2
# [2] = test system: qrr4; format: cell-based; settings: LuxS-CqsA- strain + autoinducer; Rep 1-3
# T1 sequence (Q9KM66 whole entry, looked up): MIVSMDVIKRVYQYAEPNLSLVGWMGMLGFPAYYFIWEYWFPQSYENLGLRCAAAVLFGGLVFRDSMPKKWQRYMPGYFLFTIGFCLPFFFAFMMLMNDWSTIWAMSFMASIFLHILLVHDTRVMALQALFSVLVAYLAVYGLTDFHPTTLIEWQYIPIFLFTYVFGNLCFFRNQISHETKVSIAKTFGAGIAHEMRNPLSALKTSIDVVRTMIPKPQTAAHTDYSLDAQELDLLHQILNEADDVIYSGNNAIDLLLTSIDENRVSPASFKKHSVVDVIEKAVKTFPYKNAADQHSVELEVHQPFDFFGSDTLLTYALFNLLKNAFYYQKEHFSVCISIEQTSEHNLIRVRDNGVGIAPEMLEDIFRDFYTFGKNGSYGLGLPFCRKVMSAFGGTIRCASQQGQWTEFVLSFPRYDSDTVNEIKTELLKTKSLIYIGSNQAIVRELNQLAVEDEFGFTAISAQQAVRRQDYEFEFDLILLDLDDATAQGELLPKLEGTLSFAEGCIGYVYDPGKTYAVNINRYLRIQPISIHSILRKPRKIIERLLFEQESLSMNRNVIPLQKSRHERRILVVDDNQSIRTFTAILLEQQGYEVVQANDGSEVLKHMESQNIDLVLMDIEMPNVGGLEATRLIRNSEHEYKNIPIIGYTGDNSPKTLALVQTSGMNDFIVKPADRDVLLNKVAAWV
smiles,measurement,setting,value
O=C(Cc1ccc(-c2ccccc2)cc1)NC1CCC1 [#8],Light production,[1]; Agonist 0.0119209 nM,17900 RLU and 10791 RLU and 14350 RLU
same,Light production,[1]; Agonist 0.0476837 nM,11100 RLU and 15000 RLU and 11881 RLU
same,Light production,[1]; Agonist 0.190735 nM,26990 RLU and 16080 RLU and 18824 RLU
same,Light production,[1]; Agonist 0.762939 nM,24950 RLU and 23905 RLU
same,Light production,[1]; Agonist 3.05176 nM,48627 RLU and 40000 RLU and 32706 RLU
same,Light production,[1]; Agonist 12.207 nM,75176 RLU and 69890 RLU and 67191 RLU
same,Light production,[1]; Agonist 48.8281 nM,1115870 RLU and 738497 RLU and 676886 RLU
same,Light production,[1]; Agonist 195.312 nM,40840900 RLU and 39570670 RLU and 37676260 RLU
same,Light production,[1]; Agonist 781.25 nM,91907700 RLU and 100480500 RLU and 102019900 RLU
same,Light production,[1]; Agonist 3125 nM,92588910 RLU and 118830300 RLU and 113054700 RLU
same,Light production,[1]; Agonist 12500 nM,89613410 RLU and 99998040 RLU and 103728600 RLU
same,Light production,[1]; Agonist 50000 nM,78185000 RLU and 81850050 RLU and 75936470 RLU
same,EC50,[1],53 nM
CCCn1nnnc1NCc1ccc(N(CC)CC)cc1 [#2],Light production,[1]; Agonist 0.0119209 nM,10481 RLU and 11875 RLU and 20274 RLU
same,Light production,[1]; Agonist 0.0476837 nM,11765 RLU and 13923 RLU and 13822 RLU
same,Light production,[1]; Agonist 0.190735 nM,21584 RLU and 21176 RLU and 18763 RLU
same,Light production,[1]; Agonist 0.762939 nM,32000 RLU and 26047 RLU and 22456 RLU
same,Light production,[1]; Agonist 3.05176 nM,51860 RLU and 50633 RLU and 45087 RLU
same,Light production,[1]; Agonist 12.207 nM,312292 RLU and 263721 RLU and 253642 RLU
same,Light production,[1]; Agonist 48.8281 nM,5147778 RLU and 5005576 RLU and 4962410 RLU
same,Light production,[1]; Agonist 195.312 nM,29151080 RLU and 28675780 RLU and 30844170 RLU
same,Light production,[1]; Agonist 781.25 nM,78218700 RLU and 84853010 RLU and 92706410 RLU
same,Light production,[1]; Agonist 3125 nM,94808130 RLU and 116685800 RLU and 113209800 RLU
same,Light production,[1]; Agonist 12500 nM,93694120 RLU and 114540600 RLU and 119989100 RLU
same,Light production,[1]; Agonist 50000 nM,88291390 RLU and 103481200 RLU and 109394800 RLU
same,EC50,[1],26 nM
c1cc(N2CCCC2)ccc1CNc1nnn[nH]1 [#6],CqsS agonist activity,[1]; S10 Fig,loses all activity
same,RLU,[1]; agonist 0.762939 nM,2.15E+03 RLU and 2.08E+03 RLU and 4.10E+03 RLU
same,RLU,[1]; agonist 12.207 nM,2.13E+03 RLU and 2.35E+03 RLU and 4.10E+03 RLU
same,RLU,[1]; agonist 48.8281 nM,2.14E+03 RLU and 2.26E+03 RLU and 4.12E+03 RLU
same,RLU,[1]; agonist 195.312 nM,6.45E+03 RLU and 4.19E+03 RLU and 4.17E+03 RLU
same,RLU,[1]; agonist 50000 nM,6.42E+03 RLU and 4.10E+03 RLU and 6.49E+03 RLU
CCC(C)NC(=O)Cc1ccc(-c2ccccc2)cc1 (centres unmarked) [#7],Light production,[1]; Agonist 0.0119209 nM,14566 RLU and 10667 RLU and 7878.8 RLU
same,Light production,[1]; Agonist 0.0476837 nM,16089 RLU and 13267 RLU and 10570 RLU
same,Light production,[1]; Agonist 0.190735 nM,18864 RLU and 15385 RLU and 12553 RLU
same,Light production,[1]; Agonist 0.762939 nM,24094 RLU and 21702 RLU and 17241 RLU
same,Light production,[1]; Agonist 3.05176 nM,32638 RLU and 25814 RLU and 24906 RLU
same,Light production,[1]; Agonist 12.207 nM,48047 RLU and 41582 RLU and 31818 RLU
same,Light production,[1]; Agonist 48.8281 nM,81242 RLU and 67619 RLU and 51844 RLU
same,Light production,[1]; Agonist 195.312 nM,183313 RLU and 159529 RLU and 160500 RLU
same,Light production,[1]; Agonist 781.25 nM,10770860 RLU and 8237516 RLU and 9173585 RLU
same,Light production,[1]; Agonist 3125 nM,90855490 RLU and 84011930 RLU and 82291170 RLU
same,Light production,[1]; Agonist 12500 nM,122744100 RLU and 104793600 RLU and 103467300 RLU
same,Light production,[1]; Agonist 50000 nM,104239700 RLU and 95731630 RLU and 92148540 RLU
same,EC50,[1],403 nM
CCn1nnnc1NCc1ccc(C(C)C)cc1 [#5],Light production,[1]; Agonist 0.0119209 nM,22342 RLU and 16526 RLU and 20189 RLU
same,Light production,[1]; Agonist 0.0476837 nM,18351 RLU and 14922 RLU and 16393 RLU
same,Light production,[1]; Agonist 0.190735 nM,24222 RLU and 32473 RLU and 30802 RLU
same,Light production,[1]; Agonist 0.762939 nM,43006 RLU and 46460 RLU and 51236 RLU
same,Light production,[1]; Agonist 3.05176 nM,215673 RLU and 187636 RLU and 197250 RLU
same,Light production,[1]; Agonist 12.207 nM,3692444 RLU and 3488605 RLU and 3831864 RLU
same,Light production,[1]; Agonist 48.8281 nM,25448660 RLU and 29298250 RLU and 27925710 RLU
same,Light production,[1]; Agonist 195.312 nM,71515280 RLU and 80802780 RLU and 79358510 RLU
same,Light production,[1]; Agonist 781.25 nM,95077870 RLU and 111974800 RLU and 120784000 RLU
same,Light production,[1]; Agonist 3125 nM,107051300 RLU and 126535100 RLU and 129294500 RLU
same,Light production,[1]; Agonist 12500 nM,98996430 RLU and 113608500 RLU and 123733600 RLU
same,Light production,[1]; Agonist 50000 nM,91459320 RLU and 107555000 RLU and 106482900 RLU
same,EC50,[1],8 nM
O=C(Cc1ccc(-c2ccccn2)cc1)NC1CCCC1 [#9],Light production,[1]; Agonist 0.0119209 nM,8704.7 RLU and 9014.1 RLU and 7722.8 RLU
same,Light production,[1]; Agonist 0.0476837 nM,11317 RLU and 7830.7 RLU and 9751.2 RLU
same,Light production,[1]; Agonist 0.190735 nM,10595 RLU and 11217 RLU and 6363.6 RLU
same,Light production,[1]; Agonist 0.762939 nM,13636 RLU and 11364 RLU and 8044.7 RLU
same,Light production,[1]; Agonist 3.05176 nM,16879 RLU and 13647 RLU and 11676 RLU
same,Light production,[1]; Agonist 12.207 nM,22994 RLU and 16264 RLU and 15148 RLU
same,Light production,[1]; Agonist 48.8281 nM,32335 RLU and 27200 RLU and 23011 RLU
same,Light production,[1]; Agonist 195.312 nM,55190 RLU and 44311 RLU and 39030 RLU
same,Light production,[1]; Agonist 781.25 nM,108075 RLU and 97949 RLU and 93072 RLU
same,Light production,[1]; Agonist 3125 nM,7362143 RLU and 7832704 RLU and 8085455 RLU
same,Light production,[1]; Agonist 12500 nM,55377500 RLU and 53818320 RLU and 53583010 RLU
same,Light production,[1]; Agonist 50000 nM,93123590 RLU and 90629940 RLU and 93211830 RLU
same,EC50,[1],1720 nM
CCCn1nnnc1NCc1ccc(C(C)C)cc1 [#4],Light production,[1]; Agonist 0.0119209 nM,12293 RLU and 13200 RLU and 7500 RLU
same,Light production,[1]; Agonist 0.0476837 nM,18202 RLU and 15106 RLU and 14409 RLU
same,Light production,[1]; Agonist 0.190735 nM,28023 RLU and 25417 RLU and 23860 RLU
same,Light production,[1]; Agonist 0.762939 nM,52174 RLU and 73300 RLU and 48409 RLU
same,Light production,[1]; Agonist 3.05176 nM,246211 RLU and 267975 RLU and 261469 RLU
same,Light production,[1]; Agonist 12.207 nM,3790123 RLU and 3428043 RLU and 3340791 RLU
same,Light production,[1]; Agonist 48.8281 nM,19838010 RLU and 18010170 RLU and 17447160 RLU
same,Light production,[1]; Agonist 195.312 nM,61742000 RLU and 56850120 RLU and 54681960 RLU
same,Light production,[1]; Agonist 781.25 nM,104719700 RLU and 101045100 RLU and 95346500 RLU
same,Light production,[1]; Agonist 3125 nM,119868200 RLU and 118607300 RLU and 107846700 RLU
same,Light production,[1]; Agonist 12500 nM,122328400 RLU and 118368100 RLU and 108047500 RLU
same,Light production,[1]; Agonist 50000 nM,103497500 RLU and 101746000 RLU and 97356600 RLU
same,EC50,[1],7 nM
CCCCCCCCCC(=O)[C@@H](O)CC [CAI],"RLU, average per biological replicate (Totals)",[2],2.55E+08 RLU and 2.82E+08 RLU and 3.63E+08 RLU
CCCn1nnnc1NCc1ccc(N2CCCC2)cc1 [#3],Light production,[1]; Agonist 0.0476837 nM,13269 RLU and 14460 RLU and 11456 RLU
same,Light production,[1]; Agonist 0.190735 nM,18051 RLU and 20632 RLU and 16089 RLU
same,Light production,[1]; Agonist 0.762939 nM,27556 RLU and 29263 RLU and 25287 RLU
same,Light production,[1]; Agonist 3.05176 nM,53410 RLU and 57320 RLU and 53409 RLU
same,Light production,[1]; Agonist 12.207 nM,598613 RLU and 571778 RLU and 545574 RLU
same,Light production,[1]; Agonist 48.8281 nM,17729790 RLU and 16188200 RLU and 18180520 RLU
same,Light production,[1]; Agonist 195.312 nM,52331460 RLU and 53359300 RLU and 52422750 RLU
same,Light production,[1]; Agonist 781.25 nM,72153380 RLU and 70458940 RLU and 74315090 RLU
same,Light production,[1]; Agonist 3125 nM,80807740 RLU and 76653980 RLU and 72594050 RLU
same,Light production,[1]; Agonist 12500 nM,69868890 RLU and 66115120 RLU and 65607710 RLU
same,Light production,[1]; Agonist 50000 nM,41204600 RLU and 38225840 RLU and 37314420 RLU
same,fold less potent than compound #1,[1]; EC50 comparison,approximately 4 fold
same,EC50,[1],14 nM
